According to US20260216164A1, “INDOLE COMPOUND DECOMPOSING IKZF2, AND USE THEREOF” (KOREA RESEARCH INSTITUTE OF CHEMICAL TECHNOLOGY, priority 2023, published 2026):

Key:
[1] = molecular target: Helios (IKZF2) (Homo sapiens, UniProt Q96SW2+Q9UKS7); test: Screening of Helios protein degraders using Nano-Glo HiBiT cell line (HiBiT-IKZF2); type: cell-based; settings: 6 hours, HiBiT-Helios knock-in Jurkat cells; for remaining activity at 1 µM: compound 1 μM, read-out: HiBiT-IKZF2 Residual amount of Helios (%) 1 μM; for remaining activity at 10 µM: compound 10 μM, read-out: HiBiT-IKZF2 Residual amount of Helios (%) 10 μM
Sequence of Helios (IKZF2) (Q9UKS7 whole entry): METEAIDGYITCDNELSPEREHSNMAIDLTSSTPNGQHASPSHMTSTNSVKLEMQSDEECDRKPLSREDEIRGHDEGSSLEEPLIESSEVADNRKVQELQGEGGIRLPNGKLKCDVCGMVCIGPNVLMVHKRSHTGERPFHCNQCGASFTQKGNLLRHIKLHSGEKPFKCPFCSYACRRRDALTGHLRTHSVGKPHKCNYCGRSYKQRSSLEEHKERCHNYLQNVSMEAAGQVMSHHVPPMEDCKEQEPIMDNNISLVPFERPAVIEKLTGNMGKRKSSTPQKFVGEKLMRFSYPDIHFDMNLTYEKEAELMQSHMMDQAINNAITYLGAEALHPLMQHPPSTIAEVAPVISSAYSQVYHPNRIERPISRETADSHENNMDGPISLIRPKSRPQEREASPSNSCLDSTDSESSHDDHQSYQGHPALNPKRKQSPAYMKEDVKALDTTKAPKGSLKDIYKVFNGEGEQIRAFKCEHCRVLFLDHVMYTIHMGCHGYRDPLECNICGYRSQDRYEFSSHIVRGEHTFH
Sequence of Helios (IKZF2) (Q96SW2 whole entry): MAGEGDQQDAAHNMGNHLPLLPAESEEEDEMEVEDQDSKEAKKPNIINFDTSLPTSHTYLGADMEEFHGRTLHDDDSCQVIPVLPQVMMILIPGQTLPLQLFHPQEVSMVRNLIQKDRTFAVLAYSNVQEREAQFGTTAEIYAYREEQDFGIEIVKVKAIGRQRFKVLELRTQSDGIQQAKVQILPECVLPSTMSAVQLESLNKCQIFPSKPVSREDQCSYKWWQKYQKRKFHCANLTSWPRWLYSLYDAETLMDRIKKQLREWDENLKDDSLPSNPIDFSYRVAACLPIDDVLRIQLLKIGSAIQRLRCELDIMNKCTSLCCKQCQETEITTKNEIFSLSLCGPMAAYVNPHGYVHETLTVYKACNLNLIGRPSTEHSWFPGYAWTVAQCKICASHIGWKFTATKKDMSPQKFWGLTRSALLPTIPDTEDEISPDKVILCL
Sequence of Helios (IKZF2) (Q16531 whole entry partner): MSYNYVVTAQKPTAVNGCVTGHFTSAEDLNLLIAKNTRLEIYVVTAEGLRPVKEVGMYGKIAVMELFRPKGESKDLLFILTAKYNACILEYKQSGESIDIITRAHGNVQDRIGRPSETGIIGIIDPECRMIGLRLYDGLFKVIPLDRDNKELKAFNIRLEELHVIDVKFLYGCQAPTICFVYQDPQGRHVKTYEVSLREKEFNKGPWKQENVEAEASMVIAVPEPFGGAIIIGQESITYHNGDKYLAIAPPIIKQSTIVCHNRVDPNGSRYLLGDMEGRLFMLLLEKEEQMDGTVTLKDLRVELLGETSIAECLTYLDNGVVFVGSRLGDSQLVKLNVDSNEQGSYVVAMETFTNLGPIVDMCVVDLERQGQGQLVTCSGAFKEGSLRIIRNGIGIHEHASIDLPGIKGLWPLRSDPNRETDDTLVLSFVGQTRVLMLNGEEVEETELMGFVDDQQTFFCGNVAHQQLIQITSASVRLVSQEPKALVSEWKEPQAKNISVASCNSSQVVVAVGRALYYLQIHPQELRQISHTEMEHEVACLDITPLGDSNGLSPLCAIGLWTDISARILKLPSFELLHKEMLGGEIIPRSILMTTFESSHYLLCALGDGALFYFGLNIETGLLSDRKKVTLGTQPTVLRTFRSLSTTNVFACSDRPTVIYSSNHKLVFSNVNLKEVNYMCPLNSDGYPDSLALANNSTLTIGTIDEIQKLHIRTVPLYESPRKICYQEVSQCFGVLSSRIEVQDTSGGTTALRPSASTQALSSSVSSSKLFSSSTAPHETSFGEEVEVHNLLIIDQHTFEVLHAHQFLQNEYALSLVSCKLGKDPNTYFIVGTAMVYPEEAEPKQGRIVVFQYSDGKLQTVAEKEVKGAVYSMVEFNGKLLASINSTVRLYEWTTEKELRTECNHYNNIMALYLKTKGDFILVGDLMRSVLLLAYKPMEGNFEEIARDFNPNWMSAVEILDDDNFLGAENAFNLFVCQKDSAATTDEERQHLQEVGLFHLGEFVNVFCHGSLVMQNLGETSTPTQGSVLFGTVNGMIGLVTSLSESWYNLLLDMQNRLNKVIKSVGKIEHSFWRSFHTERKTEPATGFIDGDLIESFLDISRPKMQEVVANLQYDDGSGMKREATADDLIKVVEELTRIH

[2] = molecular target: IKZF2 (Helios) (Homo sapiens, UniProt Q96SW2+Q9UKS7); test: Screening of DC50 (nM) and Dmax (%) using WB-IKZF2 cell line (Western blot); type: cell-based; design: endogenous in cells; settings: 6 hours; for DC50: class symbols, read-out: WB-IKZF2 DC 50
Sequence of IKZF2 (Helios) (Q9UKS7 whole entry): as the sequence (Q9UKS7 whole entry) above
Sequence of IKZF2 (Helios) (Q96SW2 whole entry): as the sequence (Q96SW2 whole entry) above
Sequence of IKZF2 (Helios) (Q16531 whole entry partner): as the sequence (Q16531 whole entry partner) above
Description: Experimental Example 2. Screening of DC50 (nM) and Dmax (%) Using WB-IKZF2 Cell Line
Candidate degraders were serially diluted and treated in cells cultured in complete medium, followed by incubation for 6 hours at 37° C. in a CO2 incubator. After 6 hours, the cells were harvested and lysed in RIPA buffer (150 mM NaCl, 1% Triton X-100, 1% sodium deoxycholate, 0.1% SDS, 50 mM Tris-HCl pH 7.5, and 2 mM EDTA) containing a protease inhibitor cocktail (Roche). The mixture was vortexed every 10 minutes and incubated on ice for 30 minutes, followed by centrifugation at 13,000 rpm for 10 minutes at 4° C. to isolate proteins. The isolated proteins were quantified using the Bradford assay (Bio-Rad, 5000006). Proteins were separated on 8% SDS-polyacrylamide gel, transferred onto nitrocellulose membranes (Amersham, 10600002), and incubated with primary antibodies at 4° C. for 18 hours. The following primary antibodies were used: anti-Helios rabbit monoclonal antibody (Cell Signaling, 42427, 1:3000) and anti-β-actin mouse monoclonal antibody (Santa Cruz, sc-47778, 1:5000). β-actin was used as a loading control. The next day, the membranes were washed with 1×TBST for 30 minutes and incubated with HRP-conjugated secondary antibodies corresponding to the primary antibodies at room temperature for 1 hour. The following secondary antibodies were used: anti-mouse IgG HRP-linked antibody (Sigma, A9044, 1:5000) and anti-rabbit IgG HRP-linked antibody (Cell Signaling, 7074, 1:5000). After washing with 1×TBST for 30 minutes, protein expression was visualized using the Pierce ECL Western blotting substrate (Thermo Fisher, 32106), and images were captured using a chemiluminescence image analysis system (GE Healthcare, AI680). The obtained images were quantified using the ImageJ software.

Cc1c(C(=O)N2CCC(c3ccc4c(c3)CN(C3CCC(=O)NC3=O)C4=O)CC2)[nH]c2cc(O)ccc12 (centres unmarked) [Compound 47, 3-(5-(1-(6-hydroxy-3-methyl-1H-indole-2-carbonyl)piperidin-4-yl)-1-oxoinsoindolin-2-yl)piperidine-2,6-dione]
remaining activity at 1 µM [1]: 27.9% | remaining activity at 10 µM [1]: 24% | DC50 [2]: 100 to 1000 nM

Cc1c(C(=O)N2CCC(c3ccc4c(c3F)CN(C3CCC(=O)NC3=O)C4=O)CC2)[nH]c2cc(C#N)c(F)cc12 (centres unmarked) [Compound 120, 2-(4-(2-(2,6-dioxopiperidin-3-yl)-4-fluoro-1-oxoindolin-5-yl)piperidine-1-carbonyl)-5-fluoro-3-methyl-1H-indole-6-carbonitrile]
DC50 [2]: 10 to 100 nM

Cc1c(C(=O)N2CCC(c3ccc4c(c3)CN(C3CCC(=O)NC3=O)C4=O)CC2)[nH]c2cc(OC(F)(F)F)ccc12 (centres unmarked) [Compound 53, 3-(5-(1-(3-methyl-6-(trifluoromethoxy)-1H-indole-2-carbonyl)piperidin-4-yl)-1-oxoinsoindolin-2-yl)piperidine-2,6-dione]
remaining activity at 10 µM [1]: 7.7% | DC50 [2]: 100 to 1000 nM

Cc1c(C(=O)N2CCC(c3ccc4c(c3F)CN(C3CCC(=O)NC3=O)C4=O)CC2)[nH]c2cc(Cl)c(O)cc12 (centres unmarked) [Compound 115, 3-(5-(1-(6-chloro-5-hydroxy-3-methyl-1H-indole-2-carbonyl)piperidin-4-yl)-4-fluoro-1-oxoinsoindolin-2-yl)piperidine-2,6-dione]
remaining activity at 1 µM [1]: 34.6% | Dmax [2]: 100% | DC50 [2]: < 10 nM

Cc1c(C(=O)N2CCC(c3cc4c(cc3F)C(=O)N(C3CCC(=O)NC3=O)C4)CC2)[nH]c2cc([N+](=O)[O-])ccc12 (centres unmarked) [Compound 93, 3-(6-fluoro-5-(1-(3-methyl-6-nitro-1H-indole-2-carbonyl)piperidin-4-yl)-1-oxoinsoindolin-2-yl)piperidine-2,6-dione]
remaining activity at 10 µM [1]: 26.5% | Dmax [2]: 100% | DC50 [2]: < 10 nM

Cc1c(C(=O)N2CCC(c3ccc4c(c3F)CN(C3CCC(=O)NC3=O)C4=O)CC2)[nH]c2cc([N+](=O)[O-])ccc12 (centres unmarked) [Compound 94, 3-(4-fluoro-5-(1-(3-methyl-6-nitro-1H-indole-2-carbonyl)piperidin-4-yl)-1-oxoinsoindolin-2-yl)piperidine-2,6-dione]
remaining activity at 10 µM [1]: 8.5% | Dmax [2]: 100% | DC50 [2]: < 10 nM

Cc1c(C(=O)N2CCC(c3ccc4c(c3)CN(C3CCC(=O)NC3=O)C4=O)CC2)[nH]c2cc(C(F)(F)F)ccc12 (centres unmarked) [Compound 48, 3-(5-(1-(3-methyl-6-(trifluoromethyl)-1H-indole-2-carbonyl)piperidin-4-yl)-1-oxoinsoindolin-2-yl)piperidine-2,6-dione]
remaining activity at 10 µM [1]: 8.21% | DC50 [2]: 10 to 100 nM

Cc1c(C(=O)N2CCC(c3ccc4c(c3F)CN(C3CCC(=O)NC3=O)C4=O)CC2)[nH]c2cc(Cl)c(C#N)cc12 (centres unmarked) [Compound 119, 6-chloro-2-(4-(2-(2,6-dioxopiperidin-3-yl)-4-fluoro-1-oxoindolin-5-yl)piperidine-1-carbonyl)-3-methyl-1H-indole-5-carbonitrile]
Dmax [2]: 92% | DC50 [2]: 10 to 100 nM

Cc1c(C(=O)N2CCC(c3ccc4c(c3)C(=O)N(C3CCC(=O)NC3=O)C4=O)CC2)[nH]c2cc([N+](=O)[O-])ccc12 (centres unmarked) [Compound 95, 2-(2,6-dioxopiperidin-3-yl)-5-(1-(3-methyl-6-nitro-1H-indole-2-carbonyl)piperidin-4-yl)isoindoline-1,3-dione]
remaining activity at 10 µM [1]: 10.9% | DC50 [2]: 10 to 100 nM

Cc1c(C(=O)N2CCC(c3cc4c(cc3F)C(=O)N(C3CCC(=O)NC3=O)C4)CC2)[nH]c2cc(Cl)c(F)cc12 (centres unmarked) [Compound 112, 3-(5-(1-(6-chloro-5-fluoro-3-methyl-1H-indole-2-carbonyl)piperidin-4-yl)-6-fluoro-1-oxoinsoindolin-2-yl)piperidine-2,6-dione]
remaining activity at 1 µM [1]: 23% | Dmax [2]: 98% | DC50 [2]: 10 to 100 nM

Cc1c(C(=O)N2CCC(c3ccc4c(c3)CN(C3CCC(=O)NC3=O)C4=O)CC2)[nH]c2cc([N+](=O)[O-])ccc12 (centres unmarked) [Compound 55, 3-(5-(1-(3-methyl-6-nitro-1H-indole-2-carbonyl)piperidin-4-yl)-1-oxoinsoindolin-2-yl)piperidine-2,6-dione]
remaining activity at 10 µM [1]: 5.1% | Dmax [2]: 100% | DC50 [2]: < 10 nM

Cc1c(C(=O)N2CCC(c3cc4c(cc3F)C(=O)N(C3CCC(=O)NC3=O)C4)CC2)[nH]c2cc(Cl)ccc12 (centres unmarked) [Compound 90, 3-(5-(1-(6-chloro-3-methyl-1H-indole-2-carbonyl)piperidin-4-yl)-6-fluoro-1-oxoinsoindolin-2-yl)piperidine-2,6-dione]
remaining activity at 10 µM [1]: 6.2% | Dmax [2]: 100% | DC50 [2]: < 10 nM

Cc1c(C(=O)N2CCC(c3ccc4c(c3)CN(C3CCC(=O)NC3=O)C4=O)CC2)[nH]c2c(F)c(Cl)ccc12 (centres unmarked) [Compound 99, 3-(5-(1-(6-chloro-7-fluoro-3-methyl-1H-indole-2-carbonyl)piperidin-4-yl)-1-oxoinsoindolin-2-yl)piperidine-2,6-dione]
remaining activity at 1 µM [1]: 10.9% | remaining activity at 10 µM [1]: 14.6% | DC50 [2]: 10 to 100 nM

Cc1c(C(=O)N2CCC(c3ccc4c(c3F)CN(C3CCC(=O)NC3=O)C4=O)CC2)[nH]c2c(F)c(Cl)ccc12 (centres unmarked) [Compound 117, 3-(5-(1-(6-chloro-7-fluoro-3-methyl-1H-indole-2-carbonyl)piperidin-4-yl)-4-fluoro-1-oxoinsoindolin-2-yl)piperidine-2,6-dione]
DC50 [2]: < 10 nM

Cc1c(C(=O)N2CCC(c3ccc4c(c3F)CN(C3CCC(=O)NC3=O)C4=O)CC2)[nH]c2cc(N3CCOCC3)ccc12 (centres unmarked) [Compound 116, 3-(4-fluoro-5-(1-(3-methyl-6-morpholino-1H-indole-2-carbonyl)piperidin-4-yl)-1-oxoinsoindolin-2-yl)piperidine-2,6-dione]
Dmax [2]: 96% | DC50 [2]: 10 to 100 nM

Cc1c(C(=O)N2CCC(c3ccc4c(c3F)C(=O)N(C3CCC(=O)NC3=O)C4=O)CC2)[nH]c2cc(Cl)ccc12 (centres unmarked) [Compound 121, 5-(1-(6-chloro-3-methyl-1H-indole-2-carbonyl)piperidin-4-yl)-2-(2,6-dioxopiperidin-3-yl)-4-fluoroisoindoline-1,3-dione]
DC50 [2]: 100 to 1000 nM

Cc1c(C(=O)N2CCC(c3ccc4c(c3F)CN(C3CCC(=O)NC3=O)C4=O)CC2)[nH]c2cc(C#N)ccc12 (centres unmarked) [Compound 118, 2-(4-(2-(2,6-dioxopiperidin-3-yl)-4-fluoro-1-oxoindolin-5-yl)piperidine-1-carbonyl)-3-methyl-1H-indole-6-carbonitrile]
Dmax [2]: 100% | DC50 [2]: < 10 nM

Cc1c(C(=O)N2CCC(c3ccc4c(c3)CN(C3CCC(=O)NC3=O)C4=O)CC2)[nH]c2cc(Cl)cc(Cl)c12 (centres unmarked) [Compound 107, 3-(5-(1-(4,6-dichloro-3-methyl-1H-indole-2-carbonyl)piperidin-4-yl)-1-oxoinsoindolin-2-yl)piperidine-2,6-dione]
remaining activity at 1 µM [1]: 56.6% | remaining activity at 10 µM [1]: 51.5%

O=C1CCC(N2Cc3cc(C4CCN(C(=O)c5cc6ncc(Cl)cc6[nH]5)CC4)ccc3C2=O)C(=O)N1 (centres unmarked) [Compound 45, 3-(5-(1-(6-chloro-1H-picolo[3,2-b]pyridine-2-carbonyl)piperidin-4-yl)-1-oxoinsoindolin-2-yl)piperidine-2,6-dione]
remaining activity at 1 µM [1]: 70.3% | remaining activity at 10 µM [1]: 58.2%

Cc1cccc2[nH]c(C(=O)N3CCC(c4ccc5c(c4)CN(C4CCC(=O)NC4=O)C5=O)CC3)cc12 (centres unmarked) [Compound 14, 3-(5-(1-(4-methyl-1H-indole-2-carbonyl)piperidin-4-yl)-1-oxoinsoindolin-2-yl)piperidine-2,6-dione]
remaining activity at 1 µM [1]: 89% | remaining activity at 10 µM [1]: 98.4%

O=C1CCC(N2Cc3cc(C4CCN(C(=O)c5[nH]c6cc(Cl)ccc6c5CO)CC4)ccc3C2=O)C(=O)N1 (centres unmarked) [Compound 105, 3-(5-(1-(6-chloro-3-(hydroxymethyl)-1H-indole-2-carbonyl)piperidin-4-yl)-1-oxoinsoindolin-2-yl)piperidine-2,6-dione]
remaining activity at 1 µM [1]: 15.2% | remaining activity at 10 µM [1]: 8.5%

CC1CC(c2ccc3c(c2)CN(C2CCC(=O)NC2=O)C3=O)CCN1C(=O)c1cc2ccc(Cl)cc2[nH]1 (centres unmarked) [Compound 59, 3-(5-(1-(6-chloro-1H-indole-2-carbonyl)-2-methylpiperidin-4-yl)-1-oxoinsoindolin-2-yl)piperidine-2,6-dione]
remaining activity at 10 µM [1]: 25.4%

Cc1ccc2cc(C(=O)N3CCC(c4ccc5c(c4)CN(C4CCC(=O)NC4=O)C5=O)CC3)[nH]c2c1 (centres unmarked) [Compound 15, 3-(5-(1-(6-methyl-1H-indole-2-carbonyl)piperidin-4-yl)-1-oxoinsoindolin-2-yl)piperidine-2,6-dione]
remaining activity at 1 µM [1]: 66.9% | remaining activity at 10 µM [1]: 73%
